From patent EP4603105A1, “PHARMACEUTICAL COMPOSITION CONTAINING CYCLIC COMPOUND HAVING SELECTIVE KRAS INHIBITORY EFFECT AGAINST HRAS AND NRAS” (CHUGAI SEIYAKU KABUSHIKI KAISHA, priority 2022, dated 2024)
pIC50: −log10 of the molar value.

Experiments:
[1] = molecular target: GDP-bound NRAS wild-type protein (Homo sapiens, UniProt P01111); assay: Binding to NRAS by surface plasmon resonance (SPR), KD and KD ratio to KRAS
Outline: (§1)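 Measured at 30°C: SPR with GDP-loaded, E. coli-expressed biotin-Avi RAS captured (~100–300 RU), ascending 75 s compound injections, HBS pH 7.4 with GDP, MgCl2, 4% DMSO. KD from 1:1 fit.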

[2] = molecular target: HRAS wild-type protein (Homo sapiens, UniProt P01112); assay: Binding to HRAS by surface plasmon resonance (SPR), KD and KD ratio to KRAS
HRAS wild-type protein, sequence (P01112 whole entry): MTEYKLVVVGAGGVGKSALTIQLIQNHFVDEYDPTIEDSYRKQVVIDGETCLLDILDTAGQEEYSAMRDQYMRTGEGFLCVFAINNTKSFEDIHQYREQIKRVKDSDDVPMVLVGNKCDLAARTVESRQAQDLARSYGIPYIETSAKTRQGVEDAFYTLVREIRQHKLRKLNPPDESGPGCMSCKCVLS
Outline: as §1

[3] = tested on: human lung cancer strain NCI-H441; format: cell-based
Outline: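 Signal came from […] measured per well once the reagent was added. Beforehand, cells were cultured at 37°C and 5% carbon dioxide on a compound series serially diluted in dimethyl sulfoxide.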

[4] = ratio of KD with respect to GDP-bound NRAS wild-type protein to KD with respect to KRAS
[5] = ratio of KD with respect to HRAS wild-type protein to KD with respect to KRAS
[6] = ratio of KD value for GDP-bound NRAS wild-type protein to KD value for KRAS (SPR)
[7] = ratio of KD value for HRAS wild-type protein to KD value for KRAS (SPR)

GDP-bound NRAS wild-type protein, sequence (P01111 whole entry): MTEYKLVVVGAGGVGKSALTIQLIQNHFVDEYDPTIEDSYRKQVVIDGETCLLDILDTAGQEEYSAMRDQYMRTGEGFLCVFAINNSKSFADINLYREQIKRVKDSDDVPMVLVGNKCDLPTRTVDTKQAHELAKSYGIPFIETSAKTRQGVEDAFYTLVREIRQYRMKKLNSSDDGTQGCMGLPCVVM

Row | Compound | NRAS /KRAS [1, 4] | HRAS /KRAS [2, 5] | pIC50 [3] | NRAS /KRAS [1, 6] | HRAS /KRAS [2, 7]
1 | CCO[C@@H]1C[C@H]2C(=O)NC3(CCC3)C(=O)N(C)[C@@H](C3CCCC3)C(=O)N(C)[C@H](C(=O)N(C)CCOC)CC(=O)N(C)[C@@H](CC(C)C)C(=O)N[C@@H]([C@@H](C)CC)C(=O)N(C)CC(=O)N(C)[C@H]3C/C=C\CCN(C3=O)[C@@H](Cc3ccc(C(F)(F)F)cc3)C(=O)N(C)CC(=O)N[C@@H](CCc3ccc(C(F)(F)F)c(OC)c3)C(=O)N2C1 [PP1324] | A (a compound having 10 or more and less than 20 is denoted as A) | A (a compound having 10 or more and less than 20 is denoted as A) | 8.36 | – | –
2 | CCO[C@@H]1C[C@H]2C(=O)NC3(CCC3)C(=O)N(C)[C@@H](C3CCCC3)C(=O)N(C)[C@H](C(=O)N(C)CCOC)CC(=O)N(C)[C@@H](CC(C)C)C(=O)N[C@@H]([C@@H](C)CC)C(=O)N(C)CC(=O)N(C)[C@H]3C/C=C\CCN(C3=O)[C@@H](Cc3ccc(C(F)(F)F)cc3)C(=O)N(C)CC(=O)N[C@@H](CCc3ccc4sccc4c3)C(=O)N2C1 [PP1325] | A (a compound having 10 or more and less than 20 is denoted as A) | A (a compound having 10 or more and less than 20 is denoted as A) | 7.37 | – | –
3 | CCO[C@@H]1C[C@H]2C(=O)NC3(CCC3)C(=O)N(C)[C@@H](C3CCCC3)C(=O)N(C)[C@H](C(=O)N(C)CCOC)CC(=O)N(C)[C@@H](CC(C)C)C(=O)N[C@@H]([C@@H](C)CC)C(=O)N(C)CC(=O)N(C)[C@H]3C/C=C\CCN(C3=O)[C@@H](Cc3ccc(C(F)(F)F)cc3)C(=O)N(C)CC(=O)N[C@@H](CCc3ccc(Cl)c(Cl)c3)C(=O)N2C1 [PP1326] | AA (a compound having 20 or more is denoted as AA) | A (a compound having 10 or more and less than 20 is denoted as A) | 7.64 | – | –
4 | CCO[C@@H]1C[C@H]2C(=O)NC3(CCC3)C(=O)N(C)[C@@H](C3CCCC3)C(=O)N(C)[C@H](C(=O)N(C)CCOC)CC(=O)N(C)[C@@H](CC3CC3)C(=O)N[C@@H]([C@@H](C)CC)C(=O)N(C)CC(=O)N(C)[C@H]3C/C=C\CCN(C3=O)[C@@H](Cc3ccc(C(F)(F)F)cc3)C(=O)N(C)CC(=O)N[C@@H](CCc3ccc(C(F)(F)F)c(OC)c3)C(=O)N2C1 [PP1327] | A (a compound having 10 or more and less than 20 is denoted as A) | A (a compound having 10 or more and less than 20 is denoted as A) | 7.91 | – | –
5 | CCO[C@@H]1C[C@H]2C(=O)NC3(CCC3)C(=O)N(C)[C@@H](C3CCCC3)C(=O)N(C)[C@H](C(=O)N(C)CCOC)CC(=O)N(C)[C@@H](CC3CC3)C(=O)N[C@@H]([C@@H](C)CC)C(=O)N(C)CC(=O)N(C)[C@H]3C/C=C\CCN(C3=O)[C@@H](Cc3ccc(C(F)(F)F)cc3)C(=O)N(C)CC(=O)N[C@@H](CCc3ccc4sccc4c3)C(=O)N2C1 [PP1328] | A (a compound having 10 or more and less than 20 is denoted as A) | A (a compound having 10 or more and less than 20 is denoted as A) | 6.87 | – | –
6 | CCO[C@@H]1C[C@H]2C(=O)NC3(CCC3)C(=O)N(C)[C@@H](C(CC)CC)C(=O)N(C)[C@H](C(=O)N(C)CCOC)CC(=O)N(C)[C@@H](CC)C(=O)N[C@@H]([C@@H](C)CC)C(=O)N(C)CC(=O)N(C)[C@H]3C/C=C\CCN(C3=O)[C@@H](Cc3ccc(C(F)(F)F)cc3)C(=O)N(C)CC(=O)N[C@@H](CCc3cc(F)c(C(F)(F)F)c(F)c3)C(=O)N2C1 [PP1330] | AA (a compound having 20 or more is denoted as AA) | A (a compound having 10 or more and less than 20 is denoted as A) | 7.10 | – | –
7 | CCC[C@H]1C(=O)N[C@@H]([C@@H](C)CC)C(=O)N(C)CC(=O)N(C)[C@H]2C/C=C\CCN(C2=O)[C@@H](Cc2ccc(C(F)(F)F)cc2)C(=O)N(C)CC(=O)N[C@@H](CCc2cc(F)c(C(F)(F)F)c(F)c2)C(=O)N2C[C@H](OCC)C[C@H]2C(=O)NC2(CCC2)C(=O)N(C)[C@@H](C2CCCC2)C(=O)N(C)[C@H](C(=O)N(C)CCOC)CC(=O)N1C [PP1331] | A (a compound having 10 or more and less than 20 is denoted as A) | A (a compound having 10 or more and less than 20 is denoted as A) | 7.86 | – | –
8 | CCO[C@@H]1C[C@H]2C(=O)NC3(CCC3)C(=O)N(C)[C@@H](C3CCCC3)C(=O)N(C)[C@H](C(=O)N3CCOCC3)CC(=O)N(C)[C@@H](CC(C)C)C(=O)N[C@@H]([C@@H](C)CC)C(=O)N(C)CC(=O)N(C)[C@H]3CC/C=C(/C)CN(C3=O)[C@@H](Cc3ccc(C(F)(F)F)cc3)C(=O)N(C)CC(=O)N[C@@H](CCc3cc(F)c(C(F)(F)F)c(F)c3)C(=O)N2C1 [PP1333] | C (A compound having a KD ratio of 0.1 or more and less than 3 is denoted as C) | B (a compound having 3 or more and less than 10 is denoted as B) | 6.01 | – | –
9 | CCO[C@@H]1C[C@H]2C(=O)NC3(CCC3)C(=O)N(C)[C@@H](C3CCCC3)C(=O)N(C)[C@H](C(=O)N(C)C)CC(=O)N(C)[C@@H](CC)C(=O)N[C@@H]([C@@H](C)CC)C(=O)N(C)CC(=O)N(C)[C@H]3CC/C=C(/C)CN(C3=O)[C@@H](Cc3ccc(C(F)(F)F)cc3)C(=O)N(C)CC(=O)N[C@@H](CCc3cc(F)c(C(F)(F)F)c(F)c3)C(=O)N2C1 [PP1334] | B (a compound having 3 or more and less than 10 is denoted as B) | B (a compound having 3 or more and less than 10 is denoted as B) | 6.01 | – | –
10 | CCO[C@@H]1C[C@H]2C(=O)NC3(CCC3)C(=O)N(C)[C@@H](C3CCCC3)C(=O)N(C)[C@H](C(=O)N3CCOCC3)CC(=O)N(C)[C@@H](CC)C(=O)N[C@@H]([C@@H](C)CC)C(=O)N(C)CC(=O)N(C)[C@H]3CC/C=C(/C)CN(C3=O)[C@@H](Cc3ccc(C(F)(F)F)cc3)C(=O)N(C)CC(=O)N[C@@H](CCc3cc(F)c(C(F)(F)F)c(F)c3)C(=O)N2C1 [PP1335] | B (a compound having 3 or more and less than 10 is denoted as B) | B (a compound having 3 or more and less than 10 is denoted as B) | 6.13 | – | –
11 | CCCN(C)C(=O)[C@@H]1CC(=O)N(C)[C@@H](CC(C)C)C(=O)N[C@@H]([C@@H](C)CC)C(=O)N(C)CC(=O)N(C)[C@H]2C/C=C\CCN(C2=O)[C@@H](Cc2ccc(C(F)(F)F)cc2)C(=O)N(C)CC(=O)N[C@@H](CCc2cc(F)c(C(F)(F)F)c(F)c2)C(=O)N2C[C@H](OCC)C[C@H]2C(=O)NC2(CCC2)C(=O)N(C)[C@@H](C2CCCC2)C(=O)N1C [PP1387] | A (a compound having 10 or more and less than 20 is denoted as A) | B (a compound having 3 or more and less than 10 is denoted as B) | 7.82 | – | –
12 | CCCN(C)C(=O)[C@@H]1CC(=O)N(C)[C@@H](CC2CC2)C(=O)N[C@@H]([C@@H](C)CC)C(=O)N(C)CC(=O)N(C)[C@H]2C/C=C\CCN(C2=O)[C@@H](Cc2ccc(C(F)(F)F)cc2)C(=O)N(C)CC(=O)N[C@@H](CCc2cc(F)c(C(F)(F)F)c(F)c2)C(=O)N2C[C@H](OCC)C[C@H]2C(=O)NC2(CCC2)C(=O)N(C)[C@@H](C2CCCC2)C(=O)N1C [PP1388] | A (a compound having 10 or more and less than 20 is denoted as A) | B (a compound having 3 or more and less than 10 is denoted as B) | 8.06 | – | –
13 | CCC[C@H]1C(=O)N[C@@H]([C@@H](C)CC)C(=O)N(C)CC(=O)N(C)[C@H]2C/C=C\CCN(C2=O)[C@@H](Cc2ccc(C(F)(F)F)cc2)C(=O)N(C)CC(=O)N[C@@H](CCc2cc(F)c(C(F)(F)F)c(F)c2)C(=O)N2C[C@H](OCC)C[C@H]2C(=O)NC2(CCC2)C(=O)N(C)[C@@H](C2CCCC2)C(=O)N(C)[C@H](C(=O)N(C)CCC)CC(=O)N1C [PP1389] | AA (a compound having 20 or more is denoted as AA) | A (a compound having 10 or more and less than 20 is denoted as A) | 8.62 | – | –
14 | CCO[C@@H]1C[C@H]2C(=O)NC3(CCC3)C(=O)N(C)[C@@H](C3CCCC3)C(=O)N(C)[C@H](C(=O)N(C)C)CC(=O)N(C)[C@@H](CC3CCCC3)C(=O)N[C@@H]([C@@H](C)CC)C(=O)N(C)CC(=O)N(C)[C@H]3C/C=C\CCN(C3=O)[C@@H](Cc3ccc(C)cc3)C(=O)N(C)CC(=O)N[C@@H](CCc3ccc(Cl)c(Cl)c3)C(=O)N2C1 [PP1487] | – | – | 7.33 | A (a compound having 10 or more and less than 20 is denoted as A) | A (a compound having 10 or more and less than 20 is denoted as A)
15 | CCO[C@@H]1C[C@H]2C(=O)NC3(CCC3)C(=O)N(C)[C@@H](C3CCCC3)C(=O)N(C)[C@H](C(=O)N(C)C)CC(=O)N(C)[C@@H](CC(C)C)C(=O)N[C@@H]([C@@H](C)CC)C(=O)N(C)CC(=O)N(C)[C@H]3C/C=C\CCN(C3=O)[C@@H](Cc3ccc(F)cc3)C(=O)N(C)CC(=O)N[C@@H](CCc3cc(F)c(C(F)(F)F)c(F)c3)C(=O)N2C1 [PP1488] | – | – | 7.63 | A (a compound having 10 or more and less than 20 is denoted as A) | B (a compound having 3 or more and less than 10 is denoted as B)
16 | CCO[C@@H]1C[C@H]2C(=O)NC3(CCC3)C(=O)N(C)[C@@H](C3CCCC3)C(=O)N(C)[C@H](C)CC(=O)N(C)[C@@H](CC3CC3)C(=O)N[C@@H]([C@@H](C)CC)C(=O)N(C)CC(=O)N(C)[C@H]3C/C=C\CCN(C3=O)[C@@H](Cc3ccc(F)cc3)C(=O)N(C)CC(=O)N[C@@H](CCc3cc(F)c(C(F)(F)F)c(F)c3)C(=O)N2C1 [PP1490] | – | – | 7.31 | B (a compound having 3 or more and less than 10 is denoted as B) | B (a compound having 3 or more and less than 10 is denoted as B)
